For 14 compounds, AUC, microsomal CLint and bioavailability results are on record in ChEMBL document CHEMBL2331276, “A novel class of 3-(phenoxy-phenyl-methyl)-pyrrolidines as potent and balanced norepinephrine and serotonin reuptake inhibitors: synthesis and structure-activity relationships” (Bioorg Med Chem Lett, 2013).

A short description of data set [1]: AUC in rat at 10 mg/kg, po. The format is ADME, organism-based. On the set-up: dose 10 mg/kg, route oral. The note with it: plasma.
Data set [2] can be described thus: in vitro. The note with it: rat, liver microsomes. (Liver microsomes are a subcellular fraction often used to study metabolism.)
Data set [3] in a line: Oral bioavailability in rat at 10 mg/kg. The format is ADME, organism-based. The note with it: in vivo.
Data set [4] in a line: in vitro. The note with it: human, liver microsomes.

A value given as a limit tells only on which side of the number the result lay.

As for `Clc1ccc(Cl)c(O[C@H](c2ccccc2)[C@@H]2CCNC2)c1Cl`, the AUC (as a rule, concentration integrated over time) in data set [1] was determined as 70 ng·h/mL. In addition, the microsomal CLint (commonly the capacity of the preparation to metabolise the compound, expressed as a volume cleared per time) in “in vitro [2]” is 4600 µL/min/mg; in “in vitro [4]” it was under 5 µL/min/mg. In data set [3], the bioavailability (in general, dose-corrected exposure relative to a reference, in per cent) amounted to 6%.
With `COc1cc(Cl)ccc1O[C@@H](c1ccccc1)[C@H]1CCNC1`, the microsomal CLint in “in vitro [2]” was 1990 µL/min/mg; in the data set “in vitro [4]” it was under 5 µL/min/mg.
Taken in the same sequence, the figures for `Fc1ccc(F)c(O[C@@H](c2ccccc2)[C@H]2CCNC2)c1Cl` were 1660 µL/min/mg and 113 µL/min/mg.
In turn, `COc1cc([N+](=O)[O-])ccc1O[C@@H](c1ccccc1)[C@H]1CCNC1` showed a microsomal CLint in “in vitro [4]” of under 5 µL/min/mg.
Consider `Fc1cc(F)c(F)c(O[C@H](c2ccccc2)[C@@H]2CCNC2)c1F`, for which the results for the microsomal CLint in the data set “in vitro [2]” and in “in vitro [4]” were 200 µL/min/mg and under 5 µL/min/mg, respectively.
In the case of `Fc1ccc(F)c(O[C@H](c2ccccc2)[C@@H]2CCNC2)c1Cl`, the microsomal CLint in “in vitro [2]” was 1340 µL/min/mg; in the data set “in vitro [4]”, 115 µL/min/mg.
Taken in the same sequence, the figures for `Clc1cc(Cl)cc(O[C@H](c2ccccc2)[C@@H]2CCNC2)c1` were 21 µL/min/mg and under 5 µL/min/mg.
On to `Fc1ccc(O[C@@H](c2ccccc2)[C@H]2CCNC2)c(Cl)c1`, for which the microsomal CLint is 185 µL/min/mg in the data set “in vitro [2]” and under 5 µL/min/mg in the data set “in vitro [4]”.
On the same counts, the results for `CCN(CC)C(=O)C1(c2ccccc2)CC1CN` (stereo not drawn) are under 5 µL/min/mg and under 5 µL/min/mg.
On the same counts, the results for `CCOc1ccccc1O[C@@H](c1ccccc1)[C@@H]1CNCCO1` [ESREBOXETINE] are 5100 µL/min/mg and 570 µL/min/mg.
Take `Clc1ccc(Cl)c(O[C@@H](c2ccccc2)[C@H]2CCNC2)c1Cl`: the microsomal CLint was 4620 µL/min/mg in the data set “in vitro [2]” and under 5 µL/min/mg in the data set “in vitro [4]”.
For the compound `Clc1cc(Cl)c(Cl)c(O[C@H](c2ccccc2)[C@@H]2CCNC2)c1`, the microsomal CLint was 100 µL/min/mg in “in vitro [2]” and under 5 µL/min/mg in “in vitro [4]”.
Turning to `Clc1cc(Cl)cc(O[C@@H](c2ccccc2)[C@H]2CCNC2)c1`, the microsomal CLint in “in vitro [2]” was 4530 µL/min/mg; in the data set “in vitro [4]” it was under 5 µL/min/mg.
In “in vitro [4]”, `Clc1cccc(O[C@@H](c2ccccc2)[C@H]2CCNC2)c1Cl` yielded a microsomal CLint of under 5 µL/min/mg.
